Measurements reported in PMC7279216, “Identification of Inhibitors to Trypanosoma cruzi Sirtuins Based on Compounds Developed to Human Enzymes” (International Journal of Molecular Sciences, 2020).
Like-named read-outs stand apart in the source and are kept apart here.

Key:
SIRT1 = tested on: SIRT1; set-up: method as in ref 22, 27 and unpublished results; details: 27 and unpublished results, cited from earlier work; for IC50: read-out: IC50 against human SIRT1
TcSir2rp1 = TcSir2rp1 (Trypanosoma cruzi, UniProt Q4DP02); experiment: biochemical; format: biochemical; details: for inhibition of TcSir2rp1 deacetylase activity: 5 µM
T. cruzi Y H10 strain [1] = experiment: High content assay (HCA), T. cruzi in vitro infection of U2OS cells; format: cell-based, Trypanosoma cruzi; details: for EC50: read-out: EC50 Value (reduces 50% of infected cells number); for SI (selectivity index = CC50/EC50): U2OS CC50 / T. cruzi EC50
[2] = Host cell cytotoxicity in high content assay; details: human
SIRT2 = tested on: SIRT2; set-up: method as in ref 22, 27 and unpublished results; details: 27 and unpublished results, cited from earlier work; for IC50: read-out: IC50 against human SIRT2
T. cruzi Y H10 strain [3] = experiment: Combinatory high content assay of SIRTi with BZN, T. cruzi in vitro infection; format: cell-based, Trypanosoma cruzi; details: for combinatory effect with benznidazole, overall: combination with BZN; for trypanocidal activity of SIRTi+BZN compared to BZN alone / trypanocidal activity of SIRTi+BZN compared to SIRTi alone: combination with BZN at constant EC50 ratios
SIRT5 = tested on: SIRT5; set-up: method as in ref 27 and unpublished results; details: ref 27 and unpublished results; cited from earlier work
TcSir2rp3 = TcSir2rp3 (Trypanosoma cruzi, UniProt Q4E5B9); experiment: biochemical; details: for inhibition at 5 µM: read-out: % of inhibition of TcSir2rp3 deacetylase activity
[4] = Trypanosoma cruzi, U2OS, 96 h, U2OS cells infected with T. cruzi, 96 hours incubation
[5] = U2OS cells infected with T. cruzi Y H10 trypomastigotes
[6] = Ratio 1, EC50 ratio 1/32 (BZN 0.8 µM)
[7] = Ratio 2, EC50 ratio 1/16 (BZN 1.5 µM)
[8] = Ratio 3, EC50 ratio 1/8 (BZN 3 µM)
[9] = Ratio 4, EC50 ratio 1/4 (BZN 6 µM)
[10] = Ratio 5, EC50 ratio 1/2 (BZN 12 µM)
[11] = Ratio 6, EC50 ratio 1 (BZN 24 µM)
[12] = Ratio 7, EC50 ratio 2 (BZN 48 µM)

TcSir2rp3, sequence (Q4E5B9 entry or part of it): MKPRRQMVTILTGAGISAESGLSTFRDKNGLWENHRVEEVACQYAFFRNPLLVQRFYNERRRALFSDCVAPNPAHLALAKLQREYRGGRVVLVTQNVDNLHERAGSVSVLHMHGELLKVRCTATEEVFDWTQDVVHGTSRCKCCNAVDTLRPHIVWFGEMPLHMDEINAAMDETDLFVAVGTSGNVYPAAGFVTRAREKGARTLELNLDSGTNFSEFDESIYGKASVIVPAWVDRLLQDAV
TcSir2rp1, sequence (Q4DP02 entry or part of it): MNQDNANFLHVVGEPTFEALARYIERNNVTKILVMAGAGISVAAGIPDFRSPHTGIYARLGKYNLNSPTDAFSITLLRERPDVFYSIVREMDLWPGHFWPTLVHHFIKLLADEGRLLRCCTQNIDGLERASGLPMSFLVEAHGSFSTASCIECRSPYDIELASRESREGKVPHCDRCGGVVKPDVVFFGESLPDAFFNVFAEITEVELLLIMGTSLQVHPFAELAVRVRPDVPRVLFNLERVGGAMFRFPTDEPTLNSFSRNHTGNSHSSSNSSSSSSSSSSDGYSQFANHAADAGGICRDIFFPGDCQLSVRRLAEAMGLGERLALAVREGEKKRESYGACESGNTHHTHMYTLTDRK

SMILES	IC50 (SIRT1) [µM]	inhibition of TcSir2rp1 deacetylase activity (TcSir2rp1)	EC50 (T. cruzi Y H10 strain [1]; [4]) [µM]	SI (selectivity index = CC50/EC50) (T. cruzi Y H10 strain [1])	CC50 at 96 h [2, 5] [µM]	IC50 (SIRT2) [µM]	combinatory effect with benznidazole, overall (T. cruzi Y H10 strain [3])	trypanocidal activity of SIRTi+BZN compared to BZN alone (T. cruzi Y H10 strain [3])	inhibition at 5 µM (TcSir2rp3) [%]	EC50 (T. cruzi Y H10 strain [1]; Trypanosoma cruzi, U2OS, 96 h) [µM]	IC50 against human SIRT2 (SIRT2)	IC50 (TcSir2rp3; read-out: TcSir2rp3 IC50 ± SD) [µM]	also measured
O=c1[nH]c(N/N=C/c2ccc([N+](=O)[O-])cc2)nc(-c2ccccc2)c1Cc1c(O)ccc2ccccc12 [Compound 17]	~50	inhibited TcSir2rp1 activity	8.5	2.31	19.6	~50	synergistic effects	no increase in trypanocidal activity					IC50 (TcSir2rp1): 25.5 ± 4.73 µM; CI (combinatory index) with BZN (T. cruzi Y H10 strain [3]; [6]): 0.38; CI (combinatory index) with BZN (T. cruzi Y H10 strain [3]; [7]): 0.69; CI (combinatory index) with BZN (T. cruzi Y H10 strain [3]; [8]): 0.73; CI (combinatory index) with BZN (T. cruzi Y H10 strain [3]; [9]): 0.74; CI (combinatory index) with BZN (T. cruzi Y H10 strain [3]; [10]): 1.25; CI (combinatory index) with BZN (T. cruzi Y H10 strain [3]; [11]): 2.45; CI (combinatory index) with BZN (T. cruzi Y H10 strain [3]; [12]): 3.52; trypanocidal activity of SIRTi+BZN compared to SIRTi alone (T. cruzi Y H10 strain [3]): increase in the trypanocidal activity; type of interaction with BZN (T. cruzi Y H10 strain [3]; ratios 1/2, 1, and 2): antagonistic effect; type of interaction with BZN (T. cruzi Y H10 strain [3]; ratios lower than 1/4): tendency towards a synergistic effect
CCN1C(=O)/C(=C\c2ccc(-c3ccc(Cl)c(Cl)c3)o2)C(=O)NC1=S [Compound 30]									> 30	42.7	single-digit micromolar		IC50 against human SIRT5 (SIRT5): single-digit micromolar; IC50 against human SIRT1 (SIRT1): single-digit micromolar; CC50 at 96 h [2]: > 100 µM
CCCN1C(=O)/C(=C\c2ccc(-c3ccc(Cl)c(Cl)c3)o2)C(=O)NC1=S [Compound 31]													IC50 (TcSir2rp3): 16.3 ± 9.54 µM
CCOC(=O)/C(=C\c1cc(C(=O)c2ccccc2OC)c[nH]1)C(=O)Nc1cccc2ncccc12 [Compound 27]		did not show potent inhibitory effect	5.73	8.18	46.9	10.5							% of inhibition of TcSir2rp3 deacetylase activity (TcSir2rp3; 5 µM): did not show potent inhibitory effect
C=CCN1C(=O)/C(=C\c2ccc(-c3ccc(Cl)c(Cl)c3)o2)C(=O)NC1=S [Compound 32]							synergistic effects	not if compared to BZN alone	> 30	39.8	single-digit micromolar		IC50 against human SIRT5 (SIRT5): single-digit micromolar; IC50 against human SIRT1 (SIRT1): single-digit micromolar; IC50 (TcSir2rp3): 16.4 ± 6.7 µM; CC50 at 96 h [2]: 77 µM; type of interaction with BZN (T. cruzi Y H10 strain [3]; all concentration ratios lower than 1/2): synergistic effect; trypanocidal activity of SIRTi+BZN compared to SIRTi alone (T. cruzi Y H10 strain [3]): increased the trypanocidal activity
CCCCCSc1nc(-c2ccccc2)c(Cc2c(O)ccc3ccccc23)c(=O)[nH]1 [Compound 15]	> 150	inhibited TcSir2rp1 activity	19.4	1.89	36.4						single-digit micromolar		IC50 (TcSir2rp1): 32.4 ± 7.88 µM; EC50 (T. cruzi Y H10 strain [1]; U2OS cells infected with T. cruzi, 96 hours incubation): 19.4 µM
O=C(Cn1ccnc1[N+](=O)[O-])NCc1ccccc1 [BZN, benznidazole, reference compound]				> 102	> 200					1.96			
O=C(CSc1nc(-c2ccccc2)c(Cc2c(O)ccc3ccccc23)c(=O)[nH]1)c1ccccc1 [Compound 13]	> 150		45.1	> 2.2	> 100				> 30		single-digit micromolar	18.5 ± 1.97	
O=c1[nH]c(SCc2ccc3ccccc3c2)nc(-c2ccccc2)c1Cc1c(O)ccc2ccccc12 [Compound 12]	> 150		35.4	1.38	48.8	6.3	low or no synergism	no difference	> 30		single-digit micromolar	14.3 ± 6.06	type of interaction with BZN (T. cruzi Y H10 strain [3]; 1/4 ratio): synergistic effect; CI (combinatory index) with BZN (T. cruzi Y H10 strain [3]; [6]): 6.6; CI (combinatory index) with BZN (T. cruzi Y H10 strain [3]; [7]): 13.2; CI (combinatory index) with BZN (T. cruzi Y H10 strain [3]; [8]): 1.02; CI (combinatory index) with BZN (T. cruzi Y H10 strain [3]; [9]): 0.82; CI (combinatory index) with BZN (T. cruzi Y H10 strain [3]; [10]): 1.14; CI (combinatory index) with BZN (T. cruzi Y H10 strain [3]; [11]): 1.48; CI (combinatory index) with BZN (T. cruzi Y H10 strain [3]; [12]): 2.29; type of interaction with BZN (T. cruzi Y H10 strain [3]; ratios 1/8, 1/2 and 1/1): additive effect; type of interaction with BZN (T. cruzi Y H10 strain [3]; ratios lower than 1/8): antagonistic effect
CC(CSc1cccc(/N=C/c2c(O)ccc3ccccc23)c1)c1ccccc1 (stereo not shown) [Compound 8]	~40		40.6	1.89	76.8	~20			> 30			18.8 ± 5.34	
